Measured values from paper PMC8194506 (Antiviral research, 2020).
Like-named read-outs stand apart in the source and are kept apart here.

B1: mAb114: a monoclonal antibody (antibody, chains of the INN, looked up, V domains shown)
VH: EVQLVESGGGLIQPGGSLRLSCAASGFALRMYDMHWVRQTIDKRLEWVSAVGPSGDTTYADSVKGRFAVSRENAKNSLSLQMNSLTAGDTAIYYCVRSDRGVAGLFDSWGQGILVTVSS
VL: DIQMTQSPSSLSASVGDRITITCRASQAFDNYVAWYQQRPGKVPKLLISAASALHAGVPSRFSGSGSGTHFTLTISSLQPEDVATYYCQNYNSAPLTFGGGTKVEIK

Tests used:
[1] = system: Marburg virus/H.sapiens-tc/AGO/2005/Ang-1379v (MARV/Ang); experiment: organism not typed; assay type: cell-based; details: HeLa
[2] = system: Marburg virus/H.sapiens-tc/KEN/1980/Mt. Elgon-Musoke (MARV/Mus); experiment: organism not typed; assay type: cell-based; details: HeLa
[3] = system: EBOV (Kikwit, Mayinga and Makona); experiment: microbe, parasite or virus in culture; assay type: cell-based, Ebola virus; details: Zaire ebolavirus, HeLa, read-out: IC50 range against three strains of EBOV
[4] = system: MARV (Musoke and Angola); experiment: organism not typed; assay type: cell-based, Marburg virus; details: HeLa, read-out: IC50 range against two strains of MARV
[5] = system: VSV pseudotyped with EBOV glycoprotein; assay type: cell-based
[6] = system: MARV Musoke strain; assay type: cell-based, Marburg virus
[7] = mouse, microsomes
[8] = guinea pig, microsomes
[9] = microsomes
[10] = human, microsomes
[11] = both, Hartley, guinea pig, in vivo
[12] = male, Hartley, guinea pig, in vivo
[13] = in vivo; details: male, Hartley, guinea pig, ip, 125 mg/kg
[14] = in vitro; details: human
[15] = in vitro; details: mouse, microsomes
[16] = in vitro; details: guinea pig, microsomes
[17] = in vitro; details: human, microsomes
[18] = human, in vivo; cited from earlier work
[19] = system: EBOV; details: cited from earlier work
[20] = system: EBOV; details: in vivo, iv; cited from earlier work
[21] = system: EBOV; details: human, in vivo; cited from earlier work
[22] = pH 7.4
[23] = system: EBOV; details: mouse, in vivo; cited from earlier work
[24] = system: Sudan virus; details: guinea pig, in vivo, sc; cited from earlier work

Row | Molecule | Clint [7] | Clint [8] | Clint [9] | Clint [10] | half-life [15] | half-life [16] | half-life [17] | activity in the guinea pig in vivo model [19] | also measured
1 | COc1ccc2nc3cc(Cl)ccc3c(Nc3cc(CN4CCCC4)c(O)c(CN4CCCC4)c3)c2n1 [Pyronaridine, 4-[(7-Chloro-2-methoxybenzo[b][1,5]naphthyridin-10-yl)amino]-2,6-bis(1-pyrrolidinylmethyl)phenol phosphate (1:4)] | <7.4 µL·min/mg | 21.0 µL·min/mg | 15.5 µL·min/mg | 11.4 µL·min/mg | > 3.1 h | 1.1 h | 2.04 h | – | IC50 [1]: 2720 ± 970 nM; IC50 [2]: 1010 ± 110 nM; IC50 [3]: 820 to 1300 nM; IC50 [4]: 1010 to 2720 nM; Effect on entry stage of infection in pseudotype assay [5]: block the entry stage of infection; Activity against MARV Musoke strain [6]: active; guinea pigs found dead within 30 mins post injection [11]: 4 of 6; guinea pigs having any abnormal clinical observations [11]: 1 of 6; Guinea pigs found dead on days 14 and 17 post dose [12]: 2 of 3; T1/2 ([12]; po, 600 mg/kg): 90.5 h; AUC(0-inf) [13]: 17400 ng·h/mL; AUC(0-t) [13]: 16600 ng·h/mL; Cmax [13]: 523 ng/mL; half-life ([13]; T1/2): 72.7 h; CC50 [14]: 4110 ± 500 nM; t1/2 [18]: 195 to 251 h
2 | CCN(CC)CCCC(C)Nc1ccnc2cc(Cl)ccc12 (centres unmarked) [Chloroquine] | 29.3 µL·min/mg | 10.5 µL·min/mg | 13.0 µL·min/mg | 6.9 µL·min/mg | 0.788 h | 2.21 h | 3.36 h | inactive | –
3 | CCN(CC)CCOc1ccc2c(c1)C(=O)c1cc(OCCN(CC)CC)ccc1-2 [Tilorone] | 13.5 µL·min/mg | 113.7 µL·min/mg | 14.7 µL·min/mg | 10.9 µL·min/mg | 1.71 h | 0.203 h | 2.12 h | – | IC50 [1]: 4510 ± 1930 nM; IC50 [2]: 2050 ± 280 nM; Effect on entry stage of infection in pseudotype assay [5]: block the entry stage of infection; Activity against MARV Musoke strain [6]: active; CC50 [14]: 18000 ± 3040 nM
4 | CC[C@H]1OC(=O)[C@H](C)[C@@H](O[C@H]2C[C@@](C)(OC)[C@@H](O)[C@H](C)O2)[C@H](C)[C@@H](O[C@@H]2O[C@H](C)C[C@H](N(C)C)[C@H]2O)[C@](C)(O)C[C@@H](C)CN(C)[C@H](C)[C@@H](O)[C@]1(C)O [azithromycin] | – | – | – | – | – | – | – | inactive | –
5 | Nc1nc(Nc2ccc3c(c2)CC[C@@H](N2CCCC2)CC3)nn1-c1cc2c(nn1)-c1ccccc1CCC2 [BGB324] | – | – | – | – | – | – | – | inactive | –
6 | CCC(CC)COC(=O)[C@H](C)N[P@](=O)(OC[C@H]1O[C@@](C#N)(c2ccc3c(N)ncnn23)[C@H](O)[C@@H]1O)Oc1ccccc1 [remdesivir] | – | – | – | – | – | – | – | – | survival [20]: 100%; overall survival rate [21]: 47%
7 | CCN(CC)CCCC(C)Nc1c2ccc(Cl)cc2nc2ccc(OC)cc12 (centres unmarked) [Quinacrine] | 110.0 µL·min/mg | 81.3 µL·min/mg | 137.4 µL·min/mg | 50.5 µL·min/mg | 0.21 h | 0.285 h | 0.458 h | – | IC50 [1]: 2940 ± 760 nM; IC50 [2]: 1570 ± 170 nM; Effect on entry stage of infection in pseudotype assay [5]: block the entry stage of infection; Activity against MARV Musoke strain [6]: active; O-demethylation, higher in guinea pig [22]: 2–3 times; CC50 [14]: 8620 ± 20 nM
8 | CCCCc1oc2ccccc2c1C(=O)c1cc(I)c(OCCN(CC)CC)c(I)c1 [amiodarone] | – | – | – | – | – | – | – | inactive | –
9 | 17-DMAG | – | – | – | – | – | – | – | inactive | –
10 | NC(=O)c1nc(F)c[nH]c1=O [Favipiravir] | – | – | – | – | – | – | – | – | protection [23]: 83%; survival rates [24]: 83–100%
11 | B1 | – | – | – | – | – | – | – | – | overall survival rate [21]: 66%
